Counter-ions that a name gives are not always drawn.
Molecular target: T1, SCD (stearoyl-CoA desaturase), SCD-containing rat microsomes (Rattus norvegicus, UniProt P07308)
T1 construct: SCD-containing rat microsomes (2 μg protein); from tissue
T1 sequence (P07308 1-358): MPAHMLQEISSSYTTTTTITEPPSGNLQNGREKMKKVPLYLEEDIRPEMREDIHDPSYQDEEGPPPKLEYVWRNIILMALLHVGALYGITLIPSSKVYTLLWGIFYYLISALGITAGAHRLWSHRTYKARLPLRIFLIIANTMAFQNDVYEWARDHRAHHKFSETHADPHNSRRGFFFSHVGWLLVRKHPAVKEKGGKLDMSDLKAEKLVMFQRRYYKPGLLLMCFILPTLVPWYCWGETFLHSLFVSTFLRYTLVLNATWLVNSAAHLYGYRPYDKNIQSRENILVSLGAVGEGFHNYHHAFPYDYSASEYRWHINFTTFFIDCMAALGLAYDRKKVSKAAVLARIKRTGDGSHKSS
Experiment: in vitro assay for SCD activity based on production of [3H]H2O from [9,10-3H] stearoyl Coenzyme A
Assay type: biochemical
Conditions: SCD-containing rat microsomes (2 μg protein), substrate [9,10-3H] stearoyl Coenzyme A 1 μM, 5 minutes preincubation, 6 minutes incubation; read-out: average pIC50 value, in vitro assay for SCD activity (converted)
Procedure: The compounds of the present invention may be analysed in vitro for SCD activity using an assay based on the production of [^3H]H2O, which is released during the enzyme-catalyzed generation of the monounsaturated fatty acyl CoA product. The assay is performed in a 96-well filtration plates. The titrated substrate used in the assay is the [9,10-^3H] stearoyl Coenzyme A. After incubation for 6 minutes of SCD-containing rat microsomes (2 μg protein) and substrate (1 μM), the labelled fatty acid acyl-CoA species and microsomes are absorbed with charcoal and separated from [^3H]H2O by centrifugation. The formation of [^3H]H2O is used as a measure of SCD activity. Compounds at concentrations starting at 10 μM to 0.1 nM or vehicle (DMSO) are preincubated for 5 minutes with the microsomes before addition of the substrate. The concentration-responses are fitted with sigmoidal curves to obtain IC50 values.

For `CC(C)COc1ccc(Cl)cc1Cn1cc(NC(=O)c2ccc3c(c2)CCN(C(=O)OC(C)(C)C)C3)cn1` [1,1-dimethylethyl 6-({[1-({5-chloro-2-[(2-methylpropyl)oxy]phenyl}methyl)-1H-pyrazol-4-yl]amino}carbonyl)-3,4-dihydro-2(1H)-isoquinolinecarboxylate], which IC50 is on record?
The IC50 was over 10 µM.

`CC(C)c1ccc(Cn2cc(NC(=O)c3ccc4c(c3)CCN(C(=O)OC(C)(C)C)C4)cn2)cc1` [1,1-dimethylethyl 6-{[(1-{[4-(1-methylethyl)phenyl]methyl}-1H-pyrazol-4-yl)amino]carbonyl}-3,4-dihydro-2(1H)-isoquinolinecarboxylate] was tested. Which IC50 did it give?
The IC50 was over 10 µM.

`CC(C)c1nn(Cc2ccc(Cl)c(Cl)c2)cc1C(=O)Nc1ccc2c(c1)CCNC2` [1-[(3,4-dichlorophenyl)methyl]-3-(1-methylethyl)-N-(1,2,3,4-tetrahydro-6-isoquinolinyl)-1H-pyrazole-4-carboxamide hydrochloride] was tested. Which IC50 did it give?
Its IC50 is over 10 µM.

Which IC50 does the source give for `CC(C)c1c(C(=O)Nc2ccc3c(c2)CCNC3)cnn1Cc1ccc(Cl)c(Cl)c1` [1-[(3,4-dichlorophenyl)methyl]-5-(1-methylethyl)-N-(1,2,3,4-tetrahydro-6-isoquinolinyl)-1H-pyrazole-4-carboxamide hydrochloride] here?
The IC50 was over 10 µM.

`O=C(Nc1ccc2c(c1)CCNC2)c1cnn(Cc2ccc(Cl)cc2)c1` [1-[(4-chlorophenyl)methyl]-N-(1,2,3,4-tetrahydro-6-isoquinolinyl)-1H-pyrazole-4-carboxamide hydrochloride] was tested. Which IC50 did it give?
Its IC50 is 3.16 to 10 µM.

With `O=C(Nc1cnn(Cc2ccccc2Cl)c1)c1ccc2c(c1)CCNC2` [Example 8, N-{1-[(2-chlorophenyl)methyl]-1H-pyrazol-4-yl}-1,2,3,4-tetrahydro-6-isoquinolinecarboxamide] as the compound, how does the IC50 read?
The IC50 was 3.16 to 10 µM.

With `Cc1ccc(Cn2cc(NC(=O)c3ccc4c(c3)CCNC4)cn2)cc1` [Example 14, N-{1-[(4-methylphenyl)methyl]-1H-pyrazol-4-yl}-1,2,3,4-tetrahydro-6-isoquinolinecarboxamide] as the compound, how does the IC50 read?
Its IC50 is 3.16 to 10 µM.

With `O=C(Nc1ccc2c(c1)CCNC2)c1cnn(Cc2ccc(C(F)(F)F)cc2)c1` [N-(1,2,3,4-tetrahydro-6-isoquinolinyl)-1-{[4-(trifluoromethyl)phenyl]methyl}-1H-pyrazole-4-carboxamide hydrochloride] as the compound, how does the IC50 read?
The IC50 was over 10 µM.

Which IC50 does the source give for `O=C(Nc1cnn(Cc2ccccc2C(F)(F)F)c1)c1ccc2c(c1)CCNC2` [N-(1-{[2-(trifluoromethyl)phenyl]methyl}-1H-pyrazol-4-yl)-1,2,3,4-tetrahydro-6-isoquinolinecarboxamide hydrochloride] here?
Its IC50 is 3.16 to 10 µM.

`CC(C)c1ccc(Cn2cc(NC(=O)c3ccc4c(c3)CCNC4)cn2)cc1` [N-(1-{[4-(1-methylethyl)phenyl]methyl}-1H-pyrazol-4-yl)-1,2,3,4-tetrahydro-6-isoquinolinecarboxamide hydrochloride] was tested. Which IC50 did it give?
Its IC50 is over 10 µM.

With `O=C(Nc1cnn(COc2ccc(Cl)cc2)c1)c1ccc2c(c1)CCNC2` [N-(1-{[(4-chlorophenyl)oxy]methyl}-1H-pyrazol-4-yl)-1,2,3,4-tetrahydro-6-isoquinolinecarboxamide hydrochloride] as the compound, how does the IC50 read?
The IC50 was 3.16 to 10 µM.

Which IC50 does the source give for `O=C(Nc1cnn(Cc2ccccc2)c1)c1ccc2c(c1)CCNC2` [N-[1-(phenylmethyl)-1H-pyrazol-4-yl]-1,2,3,4-tetrahydro-6-isoquinolinecarboxamide hydrochloride] here?
Its IC50 is 3.16 to 10 µM.

With `CC(C)COc1ccc(Cl)cc1Cn1cc(NC(=O)c2ccc3c(c2)CCNC3)cn1` [N-[1-({5-chloro-2-[(2-methylpropyl)oxy]phenyl}methyl)-1H-pyrazol-4-yl]-1,2,3,4-tetrahydro-6-isoquinolinecarboxamide hydrochloride] as the compound, how does the IC50 read?
The IC50 was over 10 µM.

With `N#Cc1cccc(Cn2cc(NC(=O)c3ccc4c(c3)CCNC4)cn2)c1` [N-{1-[(3-cyanophenyl)methyl]-1H-pyrazol-4-yl}-1,2,3,4-tetrahydro-6-isoquinolinecarboxamide hydrochloride] as the compound, how does the IC50 read?
The IC50 was 3.16 to 10 µM.
